Consider four compounds from ChEMBL document CHEMBL4118220, “Design, synthesis and biological evaluation of phosphopeptides as Polo-like kinase 1 Polo-box domain inhibitors” (Bioorg Med Chem, 2018).

Data set [1] has as its system HeLa. Briefly: Induction of apoptosis in human HeLa cells assessed as necrotic cells at 5 uM after 48 hrs by Annexin V-FITC/propidium iodide staining based flow cytometry (reference value: 0.5%). Type of data set: functional.
Data set [2] concerns HeLa. Kind of data set: Induction of apoptosis in human HeLa cells assessed as late apoptotic cells at 20 uM after 48 hrs by Annexin V-FITC/propidium iodide staining based flow cytometry (reference value: 0%). Type of data set: functional.
The test system of data set [3] is HeLa. Briefly: Induction of apoptosis in human HeLa cells assessed as early apoptotic cells at 10 uM after 48 hrs by Annexin V-FITC/propidium iodide staining based flow cytometry (reference value: 0%). Type of data set: functional.
The subject of data set [4] is HeLa. Briefly: Induction of apoptosis in human HeLa cells assessed as viable cells at 5 uM after 48 hrs by Annexin V-FITC/propidium iodide staining based flow cytometry (reference value: 39.5%). Type of data set: functional. The note with it: read-out: Activity.
The test system of data set [5] is HeLa. Briefly: Induction of apoptosis in human HeLa cells assessed as necrotic cells at 20 uM after 48 hrs by Annexin V-FITC/propidium iodide staining based flow cytometry (reference value: 0.5%). The data set is classed as functional.
In data set [6] the test system is HeLa. Briefly: Induction of apoptosis in human HeLa cells assessed as early apoptotic cells at 20 uM after 48 hrs by Annexin V-FITC/propidium iodide staining based flow cytometry (reference value: 0%). The data set is classed as functional.
For data set [7], the system named is HeLa. Kind of data set: Induction of apoptosis in human HeLa cells assessed as necrotic cells at 10 uM after 48 hrs by Annexin V-FITC/propidium iodide staining based flow cytometry (reference value: 0.5%). Type of data set: functional.
The test system of data set [8] is HeLa. Briefly: Induction of apoptosis in human HeLa cells assessed as early apoptotic cells at 5 uM after 48 hrs by Annexin V-FITC/propidium iodide staining based flow cytometry (reference value: 0%). Type of data set: functional.
The subject of data set [9] is HeLa. Kind of data set: Induction of apoptosis in human HeLa cells assessed as viable cells at 20 uM after 48 hrs by Annexin V-FITC/propidium iodide staining based flow cytometry (reference value: 39.5%). The note with it: read-out: Activity. Type of data set: functional.
Data set [10] concerns the target Serine/threonine-protein kinase PLK3 (Homo sapiens, UniProt Q9H4B4). Briefly: Inhibition of FITC-GPLATSpTPKNG-OH binding to Plk3 PBD (unknown origin) after 30 mins by fluorescence polarization assay.
Data set [11] has as its system HeLa. Briefly: Induction of apoptosis in human HeLa cells assessed as viable cells at 10 uM after 48 hrs by Annexin V-FITC/propidium iodide staining based flow cytometry (reference value: 39.5%). The data set is classed as functional. The note with it: read-out: Activity.
Data set [12] has as its system HeLa. Kind of data set: Cell cycle arrest in human HeLa cells assessed as accumulation at G2/M phase at 5 to 20 uM after 48 hrs by propidium iodide staining based flow cytometry. Type of data set: functional.
Data set [13] deals with HeLa. Kind of data set: Induction of apoptosis in human HeLa cells assessed as late apoptotic cells at 10 uM after 48 hrs by Annexin V-FITC/propidium iodide staining based flow cytometry (reference value: 0%). The data set is classed as functional.
The subject of data set [14] is HeLa. Briefly: Induction of apoptosis in human HeLa cells assessed as late apoptotic cells at 5 uM after 48 hrs by Annexin V-FITC/propidium iodide staining based flow cytometry (reference value: 0%). Type of data set: functional.
For data set [15], the target named is Serine/threonine-protein kinase PLK2 (Homo sapiens, UniProt Q9NYY3). Kind of data set: Inhibition of FITC-GPMQTSpTPKNG-OH binding to Plk2 PBD (unknown origin) after 30 mins by fluorescence polarization assay.
Data set [16] deals with HeLa. Kind of data set: Cell cycle arrest in human HeLa cells assessed as decrease in G2/M phase at 20 uM after 12 hrs by propidium iodide staining based flow cytometry relative to control. The data set is classed as functional.
The subject of data set [17] is HeLa. Briefly: Decrease in CDK1 expression level in human HeLa cells after 48 hrs by Western blot analysis. The data set is classed as functional, cell-based.
In data set [18] the test system is HeLa. Briefly: Cell cycle arrest in human HeLa cells assessed as decrease in G2/M phase at 20 uM after 24 hrs by propidium iodide staining based flow cytometry relative to control. The data set is classed as functional. On the set-up: scale not given: the % may be the effect or the level left.
Data set [19] relates to HeLa. Briefly: Induction of morphological changes in human HeLa cells assessed as nuclei fragmentation at 5 to 20 uM after 48 hrs by Hoechst 33258 staining based fluorescence microscopy. The data set is classed as functional, cell-based.
Data set [20] relates to HeLa. Kind of data set: Induction of apoptosis in human HeLa cells after 48 hrs by Annexin V-FITC/propidium iodide staining based flow cytometry. The data set is classed as functional, cell-based.
Data set [21] has as its system HeLa. Briefly: Decrease in cyclin B1 expression level in human HeLa cells after 48 hrs by Western blot analysis. Type of data set: functional, cell-based.
Data set [22] is described as follows: Drug uptake in nucleus of human HeLa cells after 3 hrs by DAPI staining based confocal laser scanning microscopy. The data set is classed as ADME, subcellular.
Data set [23] relates to HeLa. Kind of data set: Induction of apoptosis in human HeLa cells assessed as PARP cleavage after 48 hrs by Western blot analysis. The data set is classed as functional, cell-based.
Data set [24] relates to HeLa. Briefly: Induction of morphological changes in human HeLa cells at 5 to 20 uM after 48 hrs by Hoechst 33258 staining based fluorescence microscopy. Type of data set: functional, cell-based.
The subject of data set [25] is HeLa. Briefly: Induction of apoptosis in human HeLa cells assessed as caspase 3 cleavage after 48 hrs by Western blot analysis. The data set is classed as functional, cell-based.
Data set [26] relates to HeLa. Kind of data set: Cell cycle arrest in human HeLa cells assessed as decrease in G2/M phase at 20 uM after 48 hrs by propidium iodide staining based flow cytometry relative to control. Type of data set: functional. On the set-up: scale not given: the % may be the effect or the level left.
Data set [27] concerns HeLa. Kind of data set: Cell cycle arrest in human HeLa cells assessed as decrease in G0/G1 phase at 5 to 20 uM after 48 hrs by propidium iodide staining based flow cytometry. Type of data set: functional.
Data set [28] relates to HeLa. Briefly: Cell cycle arrest in human HeLa cells assessed as decrease in S phase at 5 to 20 uM after 48 hrs by propidium iodide staining based flow cytometry. Type of data set: functional.
Data set [29] relates to HeLa. Briefly: Induction of morphological changes in human HeLa cells assessed as chromatin condensation at 5 to 20 uM after 48 hrs by Hoechst 33258 staining based fluorescence microscopy. The data set is classed as functional, cell-based.

Molecules are shown by their SMILES. Calls of active or inactive are those of the source. The rule behind the calls is not given here. Square brackets hold non-standard residues; d marks the D form. Peptide text beside a SMILES is read from it. Phe(3,4-Cl2) = N[C@@H](Cc1ccc(Cl)c(Cl)c1)C(=O)O; Phe(4-Cl) = N[C@@H](Cc1ccc(Cl)cc1)C(=O)O; pT = C[C@@H](OP(=O)(O)O)[C@H](N)C(=O)O

Sequence of Serine/threonine-protein kinase PLK3 (Q9H4B4 whole entry): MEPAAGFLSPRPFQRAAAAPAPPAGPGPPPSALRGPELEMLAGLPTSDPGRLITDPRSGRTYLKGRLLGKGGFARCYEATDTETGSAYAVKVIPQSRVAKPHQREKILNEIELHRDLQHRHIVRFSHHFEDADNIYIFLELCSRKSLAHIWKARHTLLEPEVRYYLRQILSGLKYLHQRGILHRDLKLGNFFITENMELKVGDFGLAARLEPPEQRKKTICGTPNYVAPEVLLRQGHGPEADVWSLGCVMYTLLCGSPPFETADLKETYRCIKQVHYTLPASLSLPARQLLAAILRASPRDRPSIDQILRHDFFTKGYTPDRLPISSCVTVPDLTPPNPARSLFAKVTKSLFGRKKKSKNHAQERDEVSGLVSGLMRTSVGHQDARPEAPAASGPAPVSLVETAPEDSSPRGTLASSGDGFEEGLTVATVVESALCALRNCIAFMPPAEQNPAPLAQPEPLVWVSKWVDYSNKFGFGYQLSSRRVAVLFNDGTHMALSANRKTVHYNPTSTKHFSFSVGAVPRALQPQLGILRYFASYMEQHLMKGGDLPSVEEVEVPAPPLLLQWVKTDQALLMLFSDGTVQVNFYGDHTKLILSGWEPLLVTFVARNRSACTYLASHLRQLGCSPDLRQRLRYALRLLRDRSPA
Sequence of Serine/threonine-protein kinase PLK2 (Q9NYY3 whole entry): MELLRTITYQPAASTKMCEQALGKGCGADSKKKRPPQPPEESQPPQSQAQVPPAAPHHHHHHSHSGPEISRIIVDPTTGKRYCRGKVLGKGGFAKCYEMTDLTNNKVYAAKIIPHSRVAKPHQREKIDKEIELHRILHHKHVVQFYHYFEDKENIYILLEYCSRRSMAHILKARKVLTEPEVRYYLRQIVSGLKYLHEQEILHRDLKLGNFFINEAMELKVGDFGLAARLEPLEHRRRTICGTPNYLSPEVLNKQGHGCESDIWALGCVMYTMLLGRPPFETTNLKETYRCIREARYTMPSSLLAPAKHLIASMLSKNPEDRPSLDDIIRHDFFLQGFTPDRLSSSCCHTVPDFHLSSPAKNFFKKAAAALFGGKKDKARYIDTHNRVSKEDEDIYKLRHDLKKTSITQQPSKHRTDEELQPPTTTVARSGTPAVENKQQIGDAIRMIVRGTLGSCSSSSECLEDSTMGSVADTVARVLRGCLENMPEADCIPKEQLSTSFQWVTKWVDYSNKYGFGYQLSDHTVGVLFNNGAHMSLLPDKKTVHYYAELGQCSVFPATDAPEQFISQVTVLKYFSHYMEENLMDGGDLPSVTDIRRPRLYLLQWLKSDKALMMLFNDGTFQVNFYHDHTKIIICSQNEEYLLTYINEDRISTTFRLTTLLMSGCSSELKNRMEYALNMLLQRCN

As to `CC[C@H](C)[C@H](NC(=O)[C@H](C)NC(=O)[C@@H](NC(=O)[C@H](CO)NC(=O)[C@H](Cc1cnc[nH]1)NC(=O)[C@H](CC(C)C)NC(=O)[C@@H]1CCCN1C(=O)[C@@H]1CCCN1C(=O)[C@H](CC(=O)O)NC(=O)[C@H](Cc1ccccc1)NC(C)=O)[C@@H](C)OP(=O)(O)O)C(=O)N[C@@H](Cc1ccc(O)cc1)C(=O)N[C@@H](C)C(=O)N[C@@H](CC(N)=O)C(N)=O` (Ac-FDPPLHS[pT]AIYAN-NH2), the Activity in data set [1], in [2], in data set [3], in data set [5], in data set [6] and in data set [7] was 0% each time. The Activity in data set [8], in data set [13] and in [14] was 0% throughout. Also, the viability at 5 µM in data set [4] came out at 100%. Besides, in [9], the viability at 20 µM stood at 100%. In addition, the IC50 entry in [10] is “Not Active”; in data set [15] (read-out: IC50), 13.4 µM. In addition, the viability at 10 µM in [11] stood at 100%. The result in [12] was inactive.

With `CC[C@H](C)[C@H](NC(=O)[C@H](C)NC(=O)[C@@H](NC(=O)[C@H](CO)NC(=O)[C@H](Cc1cnc[nH]1)NC(=O)[C@H](CC(C)C)NC(=O)[C@@H]1CCCN1C(=O)[C@@H]1CCCN1C(=O)[C@H](CC(=O)O)NC(=O)[C@H](Cc1ccc(OC)cc1)NC(=O)[C@@H](NC(=O)[C@H](CCC(N)=O)NC(C)=O)[C@@H](C)O)[C@@H](C)OP(=O)(O)O)C(=O)N[C@@H](Cc1ccc(O)cc1)C(=O)N[C@@H](C)C(=O)N[C@@H](CC(N)=O)C(N)=O` (Ac-QTY(Me)DPPLHS[pT]AIYAN-NH2), the IC50 result in data set [10] and in [15] was “Not Active” in each case.

In the case of `CC[C@H](C)[C@H](NC(=O)[C@H](C)NC(=O)[C@@H](NC(=O)[C@H](CO)NC(=O)[C@H](Cc1cnc[nH]1)NC(=O)[C@H](CC(C)C)NC(=O)[C@@H]1CCCN1C(=O)[C@@H]1CCCN1C(=O)[C@H](CC(=O)O)NC(=O)[C@H](Cc1ccc(Cl)c(Cl)c1)NC(=O)[C@@H](NC(=O)[C@H](CCC(N)=O)NC(C)=O)[C@@H](C)O)[C@@H](C)OP(=O)(O)O)C(=O)N[C@@H](Cc1ccc(O)cc1)C(=O)N[C@@H](C)C(=O)N[C@@H](CC(N)=O)C(N)=O` (Ac-QT[Phe(3,4-Cl2)]DPPLHS[pT]AIYAN-NH2), in [16], the outcome was inactive. For the same compound, the Activity was 0.2% in [1]; 2.1% in data set [2]; “Dose-dependent effect” in data set [17]; 40% in [18]; 25.2% in [3]; “Dose-dependent effect” in data set [20]. In addition, the Activity entry in data set [21] was “Dose-dependent effect”; in data set [5], 0.1%; in data set [6], 46.9%; in data set [7] it was 0.2%; in data set [8], 14.6%; in data set [12], 24.37 - 67.66%. For the same compound, the figures for the Activity in data set [26], in data set [13] and in [14] were 71%, 5.9% and 1.6%, respectively. In data set [4], the viability at 5 µM was found to be 83.7%. Moreover, the outcome in [19], in data set [23], in [24], in data set [25], in [27] and in [28] was Active. In addition, the outcome in data set [29] was Active. The Drug uptake result in data set [22] is “Active”. In data set [9], the viability at 20 µM was found to be 50.8%. The viability at 10 µM in data set [11] turned out to be 68.6%. Moreover, the IC50 entry in [15] was “Not Active”.

As for `CC[C@H](C)[C@H](NC(=O)[C@H](C)NC(=O)[C@@H](NC(=O)[C@H](CO)NC(=O)[C@H](Cc1cnc[nH]1)NC(=O)[C@H](CC(C)C)NC(=O)[C@@H]1CCCN1C(=O)[C@@H]1CCCN1C(=O)[C@H](CC(=O)O)NC(=O)[C@H](Cc1ccc(Cl)cc1)NC(=O)[C@@H](NC(=O)[C@H](CCC(N)=O)NC(C)=O)[C@@H](C)O)[C@@H](C)OP(=O)(O)O)C(=O)N[C@@H](Cc1ccc(O)cc1)C(=O)N[C@@H](C)C(=O)N[C@@H](CC(N)=O)C(N)=O` (Ac-QT[Phe(4-Cl)]DPPLHS[pT]AIYAN-NH2), the IC50 result in [10] and in data set [15] was “Not Active” in each case.
